What was measured:
[1] = Cytotoxicity (CC50) in the genotype 1b replicon assay; format: cell-based; settings: human, GS4.1 cells; genotype 1b replicon assay as described in Example 32
Procedure: (§1) For cytotoxicity evaluation, GS4.1 cells were treated with compounds as described above and cellular viability was monitored using the Cell Titer 96 AQueous One Solution Cell Proliferation Assay (Promega). CC50 values were determined from the % cytotoxicity versus concentration data with Tecan Magellan software as described above.
Compounds were tested in a genotype 1b replicon assay as described in Example 32 and the results are summarized in Table 6, wherein A represents a value smaller than 1 μM, and B represents a value between 1 μM to 10 μM, C represents a value between 10 μM to 75 μM and D represents a value greater than 75 μM.

[2] = Cytotoxicity evaluation (Cell Titer 96 AQueous One Solution Cell Proliferation Assay); format: cell-based; settings: human; GS4.1 cells, cellular viability
Procedure: as §1

[3] = from C=CCCCCN(C)C(=O)[C@@H]1C[C@H](Oc2cc(-c3nc(C(C)C)cs3)nc3c(Cl)c(OC)ccc23)CN1C(=O)N[C@]1(C(=O)NS(=O)(=O)C2CC2)C[C@H]1C=C; rcm bond; 14-membered ring; Zhan 1B (2%); DCE; 5.0 mM; 75.0 °C; 0.75 h
[4] = test system: HCV genotype 2a infectious virus; assay: HCV genotype 2a infectious virus assay; format: cell-based, HCV (strain JFH-1; genotype 2a); settings: Hepatitis C virus
Procedure: Compounds were tested in a HCV genotype 2a infectious virus assay and the results are summarized in Table 7, wherein A represents a value smaller than 1 μM, and B represents a value between 1 μM to 10 μM, C represents a value between 10 μM to 75 μM and D represents a value greater than 75 μM.
The HCV in vitro infection core ELISA assay measures the ability of a test compound to inhibit replication of an infectious HCV (strain JFH-1; genotype 2a) in cell culture. […] We have developed this model for determining the efficacy of antiviral compounds against an infectious virus in vitro using HCV producing cells (HPC), a proprietary Huh-7-derived cell sublineage capable of propagating the JFH-1 HCV virus. The readout of the assay is quantification of HCV core protein by ELISA 5 days post infection with JFH-1 virus and treatment with a test compound.
Ninety-six-well Corning Costar plates were seeded with HPC cells at a density of 3.0×10^3 cells per well in 50 μL of Huh-7 media. Compound stock solutions were made up freshly in Huh-7 media (DMEM (containing glucose, L-glutamine and sodium pyruvate), 10% FBS, 100 IU/mL penicillin, 100 μg/mL streptomycin, 2 mM GlutaMAX, 1% MEM non-essential amino acids) as 2× stock. Seven additional 3-fold drug dilutions were prepared from the 2× stocks in Huh-7 media. At least 4 hours after HPC cells were seeded, the media in the 96-well culture plates was aspirated and 50 μL of each drug dilution and 50 μL of JFH-1 HCV was added to each well.
At 16 hrs post treatment and infection, the virus inoculum was removed by aspiration. The cultures were treated at the same final concentrations of drug diluted to 1× in Huh-7 media to a final volume of 200 μL. Cells were incubated in the presence of drug for 4 additional days at 37° C./5% CO2.
Media was removed from the plates by aspiration. Cells were fixed with 250 μL 1:1 acetone:methanol for 90 seconds, washed once in PBS and then three times with 1×KPL wash solution. The assay plates were then blocked with 150 μL/well 10% FBS-TNE (50 mM Tris-HCl (pH 7.5; Sigma), 100 mM NaCl, 1 mM EDTA with 10% FBS) for 1 hr at room temperature. Cells were washed three times with 1×KPL wash solution and incubated with 100 μL/well anti-hepatitis C core mAb (1 mg/mL stock diluted 1:500 in 10% FBS-TNE) for 2 hours at 37° C. Cells were washed three times with 1×KPL wash solution and incubated with 100 μL/well HRP-goat anti-mouse antibody (diluted 1:2,500 in 10% FBS-TNE) for 1 hr at 37° C.
OPD solution was prepared using 1 OPD tablet+12 mL citrate/phosphate buffer (16 mM citric acid, 27 mM Na2HPO4) plus 5 μL 30% H2O2 per plate. Cells were washed three times with 1×KPL wash solution and developed with 100 μL/well OPD solution for 30 minutes in the dark at room temperature. The reaction was stopped with 100 μL/well of 2NH2SO4, and absorbance measured at A490 nm in a Victor^3 V 1420 multilabel counter (Perkin Elmer). The EC50 values for each compound were calculated from dose response curves from the resulting best-fit equations determined by Microsoft Excel and XLfit 4.1 software. The negative control for inhibition of virus replication was untreated HPC cells infected with the JFH-1 HCV virus strain. The negative ELISA control was untreated, uninfected HPC cells. The positive ELISA control was untreated HPC cells infected the JFH-1 HCV virus strain.

mutant protease R155Q = assay: Resistance profile, mutant protease R155Q; format: biochemical, HCV; settings: ratio of inhibitory activity against mutant enzyme over non-mutant enzyme
Procedure: (§2) General procedure: Measurement of the inhibitory effect of compounds on HCV protease activity was performed with the SensoLyte™ 620 HCV Protease Assay kit from AnaSpec, Inc. (San Jose, Calif.) under conditions described by the supplier using 1.2 nM HCV NS3-NS4A protease, which was obtained according to Taremi et al. (Protein Science, 1998, 7, 2143-2149). The compounds were tested at a variety of concentrations in assay buffer containing a final DMSO concentration of 5%. Reactions were allowed to proceed for 60 min at room temperature and fluorescence measurements were recorded with a Tecan Infinity Spectrofluorimeter. The IC50 values were determined from the percent inhibition versus concentration data using a sigmoidal non-linear regression analysis based on four parameters with Tecan Magellan software.
(§3) Compounds were evaluated against three mutant proteases R155Q, A156S, and D168A, as summarized in Table 8, wherein A represents a value smaller than 1, and B represents a value between 1 to 10, and C represents a value greater than 10. The fold of change in inhibitory activity was determined by measuring the ratio of the inhibitory activity of a compound against a mutant enzyme over the inhibitory activity of the same compound against non-mutant enzyme. The inhibitory activity was determined using the procedure as described in Example 31.

mutant protease A156S = assay: Resistance profile, mutant protease A156S; format: biochemical, HCV; settings: ratio of inhibitory activity against mutant enzyme over non-mutant enzyme
Procedure: as §2, §3

HCV NS3-NS4A protease = target: T1, HCV NS3-NS4A protease (Hepatitis C virus genotype 1b, UniProt P26663); assay: HCV Protease Assay (SensoLyte 620 HCV Protease Assay kit); format: biochemical; settings: 1.2 nM HCV NS3-NS4A protease, 60 min at room temperature, 5% DMSO
T1 construct: made in house
Outline: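 Protease at 1.2 nM, run with the SensoLyte 620 fluorogenic kit under supplier conditions, with compounds at several concentrations in buffer with 5% final DMSO. Reactions ran 60 min at room temperature before fluorescence reading; IC50 from four-parameter sigmoidal fit of percent inhibition.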

T1 sequence (P26663 1027-1208): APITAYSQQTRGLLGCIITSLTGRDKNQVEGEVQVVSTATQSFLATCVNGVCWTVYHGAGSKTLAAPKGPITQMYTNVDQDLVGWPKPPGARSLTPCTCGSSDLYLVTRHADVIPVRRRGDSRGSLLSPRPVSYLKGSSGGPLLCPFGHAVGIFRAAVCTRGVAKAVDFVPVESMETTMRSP

Question: With `COc1ccc2c(O[C@H]3C[C@H]4C(=O)N(C)CCCC/C=C\[C@@H]5C[C@@]5(C(=O)NS(=O)(=O)C5CC5)NC(=O)N4C3)cc(-c3nc(C(C)C)cs3)nc2c1Cl` [Compound 62d, (Z)-(4R,6S,15S,17S)-[17-[8-chloro-7-methoxy-2-(4-isopropylthiazol-2-yl)quinolin-4-yloxy]-13-N-methyl-2,14-dioxo-1,3,13-triazatricyclo[13.3.0.0]octadec-7-en-4-yl]carbonyl(cyclopropyl)sulfonamide] as the compound, how does the CC50 [1] read?
Answer: Its CC50 is 10 to 75 µM.

Question: What about the CC50 [2] of the same compound?
Answer: The CC50 was over 75 µM.

Question: What about the ring closure, isolated yield [3] of the same compound?
Answer: Its ring closure, isolated yield is 63%.

Question: What about the EC50 [4] of the same compound?
Answer: Its EC50 is under 1 µM.

Question: And the “Fold-Change R155Q” value (mutant protease R155Q)?
Answer: The value was “A (A represents a value smaller than 1)”.

Question: And the “Fold-Change A156S” value (mutant protease A156S)?
Answer: Its value is “A (A represents a value smaller than 1)”.

Question: And the IC50 (HCV NS3-NS4A protease)?
Answer: Its IC50 is under 1 µM.

Reference: patent publication US8003659B2, “Macrocyclic serine protease inhibitors” (Indenix Pharmaceuticals, Inc., priority 2008, dated 2011)
